Reference: US20240124714A1, “NEAR INFRARED DYES FOR BIOLOGICAL IMAGING AND OPTOELECTRONIC DEVICES” (Mississippi State University, priority 2022, published 2024)

What was measured:
[1] = Absorption spectra (maximum absorption wavelength); type: physicochemical
Protocol: All chemicals and solvents were purchased from commercial suppliers and used without further purification unless other-wise specified. ^1H NMR (500 MHz) and ^13C NMR ([…]) spectra were recorded in deuterated solvents on a Bruker ADVANCE 500 NMR Spectrometer. J values are expressed in Hz and quoted chemical shifts are in ppm downfield from tetramethylsilane (TMS) reference using the residual protonated solvents as an internal standard. The signals have been designated as follows: s (singlet), d (doublet), t (triplet), m (multiplets). All the ^13C NMR are proton decoupled. High resolution mass spectra (HRMS) were determined on Broker-micrOTOF-Q II Mass Spectrometer. Concentrations are given in μM. Absorption spectra were acquired using a Cary 5000 UV-Vis-NIR spectrophotometer in a 1 cm quartz cell.
The IR spectrums of the closed (Compound 3) and opened (XanthCR-880) forms of the dye are very distinct. The IR spectrums were obtained in dichloromethane (DCM) and dimethyl sulfoxide (DMSO) (FIG. 2). The maximum absorption wavelength (λabs) of the closed form (Compound 3) is 372 nm. However, when the dye was trapped in the opened form as the ethyl ester (XanthCR-880), the λabs shifted to 880 nm in DCM and 890 nm in DMSO, both of which are at the edge of the NIR I region and trail into the NIR II region.

[2] = Fluorescence (fluorescent quantum yield attempt); type: physicochemical; settings: attempts to determine the fluorescent quantum yield
Text: Fluorescence spectra were acquired using a custom-built setup with discrete excitation wavelengths ranging from 226 nm to 1059 nm with a temperature range from 4.2 K to 300 K using a liquid He bath cryostat. Alternatively, a Horiba QuantaMaster 8075-21 spectrofluorometer with xenon lamp excitation and liquid nitrogen cooled indium gallium arsenide solid state detector could be used. […] excitation was chosen to coincide with a Xe emission peak.

porcine liver esterase = assay: Stability in the presence of esterase (absorbance); type: in vitro ADME; settings: room temperature, 30 min
Protocol: (§1) FIGS. 3A-3B show absorption studies depicting the stability of XanthCR-880 (20 μM) to the treatment of glutathione (10 mM) (FIG. 3A) and esterase (5 units) (FIG. 3B).
(§2) The XanthCR-880 dye was evaluated for its compatibility as a PA contrast agent in chloroform (FIG. 3C) and PBS buffer and observed that the strongest intensity (XPA) was at 890 nm and 865 nm, respectively.

[3] = Stability of the dye against glutathione (change in absorption at 880 nm); type: in vitro ADME; settings: 17 μM dye, 40% DMSO/60% PBS, 10 mM reduced glutathione, after 30 min
Protocol: as §1
The XanthCR-880 dye was also shown to have excellent stability. The stability of XanthCR-880 dye was tested against glutathione, which is a potential reducing agent in biological media. The XanthCR-880 dye (17 μM) was prepared in 40% DMSO/60% PBS solution with 10 mM reduced glutathione and evaluated the change in the maximum absorption at 880 nm. The 10 mM concentration of reduced glutathione was selected to reflect the highest reported levels found in the body (i.e., liver). There was no change observed in the absorbance of the dye after 30 min.

[4] = Photoacoustic spectrum (PA contrast agent compatibility); type: physicochemical
Protocol: Photoacoustic A imaging was performed on an iThera Medical MSOT inVision 128 tomographer.
as §2

[5] = Photobleaching under continuous irradiation; type: physicochemical; settings: continuous irradiation at λPA for 60 min; 20 μM in CHCl3
Text: Ideally PA contrast agents are photostable. When PA contrast agent are used in studies, they may be subjected to multiple imaging sessions, and as such are ideally resistant to photobleaching.

Row | Structure (SMILES) | maximum absorption wavelength (λabs) ([1]; closed form, spectra obtained in DCM and DMSO, solvent of this value not stated) [nm] | maximum absorption wavelength (λabs) ([1]; in DCM) [nm] | maximum absorption wavelength (λabs) ([1]; in DMSO) [nm] | absorption maximum ([1]; solvent not stated) [nm] | fluorescence [2] | change in the absorbance (porcine liver esterase) | change in the absorbance of the dye (maximum absorption at 880 nm) [3] | wavelength of strongest photoacoustic intensity (λPA) ([4]; in PBS buffer) [nm] | wavelength of strongest photoacoustic intensity (λPA) ([4]; in chloroform (CHCl3), 20 μM) [nm] | decrease of PA signal (photobleaching) [5] [%]
1 | O=C1OC2(c3ccc(-c4ccc(N5CCCCC5)s4)cc3Oc3cc(-c4ccc(N5CCCCC5)s4)ccc32)c2ccccc21 [Compound 3] | 372 |  |  |  |  |  |  |  |  | 
2 | CCOC(=O)c1ccccc1C1=c2cc/c(=C3/C=CC(=[N+]4CCCCC4)S3)cc2Oc2cc(-c3ccc(N4CCCCC4)s3)ccc21.[Cl-] [XanthCR-880, 1-{5-[(3E)-9-[2-(Ethoxycarbonyl)phenyl]-6-[5-(piperidin-1-yl)thiophen-2-yl]-3H-xanthen-3-ylidene]-2,5-dihydrothiophen-2-ylidene}-1λ5-piperidin-1-ylium chloride] |  | 880 | 890 | 880 | sufficient fluorescence for brightness imaging | no significant change | no change | 865 | 890 | 45
